Assay results taken from patent US20210038607A1, “OXADIAZOLYLTHIOPHENE DERIVATIVES USEFUL AS HISTONE DEACETYLASE INHIBITORS” (Karus Therapeutics Limited, priority 2018, published 2021).

Assays:
[1] = target: T1, Human HDAC4 (Homo sapiens, UniProt P56524); experiment: HDAC4 biochemical assay, class IIa-specific substrate; conditions: read-out: HDAC Isoform IC50 (nM) 4
T1 construct: amino acids 627-1085 with N-terminal GST tag; GST (N); host or cells: baculovirus expression system
In short: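 GST-tagged human HDAC4 (aa 627-1085, baculovirus) at 0.004 ng/ul was incubated 30 min at room temperature with 50 μM class IIa-specific substrate BOC-Lys(trifluoroacetyl)-AMC in Tris-HCl pH 8.0 buffer with BSA, 1% DMSO. Developer then released AMC, read at 360/460 nm.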

[2] = target: T2, Human HDAC9 (Homo sapiens, UniProt Q9UKV0); experiment: HDAC9 biochemical assay, class IIa-specific substrate; conditions: read-out: HDAC Isoform IC50 (nM) 9
T2 construct: amino acids 604-1066 with C-terminal His tag; His (C); host or cells: baculovirus expression system
T2 sequence (Q9UKV0 604-1066 isoform Q9UKV0-5): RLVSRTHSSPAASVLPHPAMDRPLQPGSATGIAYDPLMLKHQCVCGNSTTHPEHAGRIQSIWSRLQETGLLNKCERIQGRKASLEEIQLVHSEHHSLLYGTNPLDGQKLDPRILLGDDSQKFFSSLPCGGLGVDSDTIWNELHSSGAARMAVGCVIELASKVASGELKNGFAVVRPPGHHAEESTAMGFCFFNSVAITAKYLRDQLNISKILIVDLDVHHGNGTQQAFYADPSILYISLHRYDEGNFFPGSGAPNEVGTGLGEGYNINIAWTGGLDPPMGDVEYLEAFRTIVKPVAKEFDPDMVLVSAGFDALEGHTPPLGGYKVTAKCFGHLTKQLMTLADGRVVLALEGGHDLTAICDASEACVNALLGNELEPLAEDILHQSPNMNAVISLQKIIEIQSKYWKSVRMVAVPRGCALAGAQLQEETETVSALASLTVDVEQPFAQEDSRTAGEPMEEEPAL
In short: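 HDAC9 residues 604-1066 (C-terminal His tag, baculovirus-expressed) at 0.06 ng/ul with 50 μM class IIa substrate Boc-Lys(trifluoroacetyl)-AMC in Tris-HCl pH 8.0 buffer with BSA and 1% DMSO. 30 min at room temperature, then developer added; fluorescence read at 360/460 nm Ex/Em.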

[3] = target: T3, Human HDAC7 (Homo sapiens, UniProt Q8WUI4); experiment: HDAC7 biochemical assay, class IIa-specific substrate; conditions: read-out: HDAC Isoform IC50 (nM) 7
T3 construct: (a.a. 518-end) with N-terminal GST tag; GST (N); host or cells: baculovirus expression system
T3 sequence (Q8WUI4 518-952 limits assumed): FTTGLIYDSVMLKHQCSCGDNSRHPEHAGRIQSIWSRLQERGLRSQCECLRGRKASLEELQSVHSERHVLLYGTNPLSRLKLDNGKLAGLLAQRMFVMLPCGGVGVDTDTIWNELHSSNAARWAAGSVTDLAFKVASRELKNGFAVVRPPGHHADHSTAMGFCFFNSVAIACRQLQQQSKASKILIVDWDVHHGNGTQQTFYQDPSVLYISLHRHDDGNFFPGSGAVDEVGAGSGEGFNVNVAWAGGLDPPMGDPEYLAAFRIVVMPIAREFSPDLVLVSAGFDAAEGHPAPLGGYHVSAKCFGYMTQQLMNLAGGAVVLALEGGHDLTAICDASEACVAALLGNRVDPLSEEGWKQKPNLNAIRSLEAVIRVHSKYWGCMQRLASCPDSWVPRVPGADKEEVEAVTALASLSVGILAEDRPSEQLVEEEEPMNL
In short: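 GST-tagged HDAC7 (a.a. 518-end, baculovirus-expressed) at 0.001 ng/ul with 50 μM Boc-Lys(trifluoroacetyl)-AMC substrate, 30 min at room temperature in pH 8.0 Tris buffer with BSA, 1% DMSO final. Developer then releases AMC; fluorescence read at 360/460 nm.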

[4] = target: T4, Human HDAC5 (Homo sapiens, UniProt Q9UQL6); experiment: HDAC5 biochemical assay, class IIa-specific substrate; conditions: read-out: HDAC Isoform IC50 (nM) 5
T4 construct: full length with C-terminal His tag, MW=51.1 kDa; His (C); host or cells: baculovirus expression system
T4 sequence (Q9UQL6 656-1122 limits assumed): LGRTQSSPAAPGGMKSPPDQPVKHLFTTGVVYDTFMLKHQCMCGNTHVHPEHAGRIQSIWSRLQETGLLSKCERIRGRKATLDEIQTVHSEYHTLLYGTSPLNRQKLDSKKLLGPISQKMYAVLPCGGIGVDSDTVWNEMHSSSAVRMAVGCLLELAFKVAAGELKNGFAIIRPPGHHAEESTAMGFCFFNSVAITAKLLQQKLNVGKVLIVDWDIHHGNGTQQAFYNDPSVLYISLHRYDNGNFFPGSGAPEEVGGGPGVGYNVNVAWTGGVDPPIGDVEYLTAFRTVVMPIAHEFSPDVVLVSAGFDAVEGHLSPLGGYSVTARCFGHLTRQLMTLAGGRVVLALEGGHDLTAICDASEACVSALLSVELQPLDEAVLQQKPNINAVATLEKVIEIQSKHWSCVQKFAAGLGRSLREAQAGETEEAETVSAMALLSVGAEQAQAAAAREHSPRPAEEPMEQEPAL
In short: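 Full-length C-terminal His-tagged HDAC5 from baculovirus (0.05 ng/ul) incubated 30 min at room temperature with 50 μM Boc-Lys(trifluoroacetyl)-AMC and compound, Tris pH 8.0 buffer with BSA, 1% DMSO. Developer then releases AMC; fluorescence 360/460 nm.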

[5] = target: T5, Recombinant human HDAC6 (Homo sapiens, UniProt Q9UBN7); experiment: HDAC6 biochemical assay, AMC-labeled peptide substrate; conditions: HDAC6; read-out: HDAC Isoform IC50 (nM) 6
T5 construct: full length, MW=159 kDa; GST (N); host or cells: Sf9 insect cells (baculovirus)
T5 sequence (Q9UBN7 1-1215): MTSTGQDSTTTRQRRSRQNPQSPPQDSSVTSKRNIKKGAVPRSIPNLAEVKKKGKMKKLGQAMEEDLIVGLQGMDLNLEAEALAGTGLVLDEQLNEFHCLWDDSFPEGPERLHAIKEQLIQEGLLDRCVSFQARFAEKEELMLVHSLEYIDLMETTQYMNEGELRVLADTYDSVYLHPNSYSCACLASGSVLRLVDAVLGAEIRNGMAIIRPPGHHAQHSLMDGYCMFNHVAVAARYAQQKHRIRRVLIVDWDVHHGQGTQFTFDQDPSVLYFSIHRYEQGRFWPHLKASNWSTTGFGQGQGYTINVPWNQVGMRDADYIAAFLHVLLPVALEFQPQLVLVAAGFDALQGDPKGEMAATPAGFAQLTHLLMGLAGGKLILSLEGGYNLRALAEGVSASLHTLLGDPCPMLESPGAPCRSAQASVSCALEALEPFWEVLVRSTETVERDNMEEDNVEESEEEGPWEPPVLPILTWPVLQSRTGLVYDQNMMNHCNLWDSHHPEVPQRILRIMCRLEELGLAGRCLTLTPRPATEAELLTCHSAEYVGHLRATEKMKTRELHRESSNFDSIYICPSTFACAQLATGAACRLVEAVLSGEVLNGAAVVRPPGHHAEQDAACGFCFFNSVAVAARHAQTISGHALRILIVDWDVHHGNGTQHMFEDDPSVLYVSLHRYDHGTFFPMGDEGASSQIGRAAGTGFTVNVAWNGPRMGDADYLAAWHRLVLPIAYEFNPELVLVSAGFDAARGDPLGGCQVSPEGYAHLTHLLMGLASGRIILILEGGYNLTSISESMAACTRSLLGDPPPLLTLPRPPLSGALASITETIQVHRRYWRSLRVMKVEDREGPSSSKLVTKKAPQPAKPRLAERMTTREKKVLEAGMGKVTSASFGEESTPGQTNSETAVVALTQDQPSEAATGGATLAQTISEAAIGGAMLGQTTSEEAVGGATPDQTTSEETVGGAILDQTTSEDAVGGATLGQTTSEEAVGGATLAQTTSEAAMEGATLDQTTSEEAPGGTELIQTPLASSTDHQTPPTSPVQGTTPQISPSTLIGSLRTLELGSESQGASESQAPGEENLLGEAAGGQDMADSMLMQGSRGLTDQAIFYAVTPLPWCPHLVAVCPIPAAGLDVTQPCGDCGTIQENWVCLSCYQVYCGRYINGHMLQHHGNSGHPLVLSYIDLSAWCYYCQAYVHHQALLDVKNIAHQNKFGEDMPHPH
In short: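 Two-step fluorogenic read-out: enzyme deacetylates 50 μM RHKK(Ac)AMC for 1 h at 30° C in pH 8.0 Tris buffer with BSA and 1% DMSO, then developer cleavage gives signal at Ex 360/Em 460. Enzyme: 0.3 ng/ul recombinant full-length human HDAC6, GST-tagged, Sf9-expressed.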

[6] = target: T6, Human HDAC1 (Homo sapiens, UniProt Q13547); experiment: HDAC1 biochemical assay, AMC-labeled peptide substrate; conditions: read-out: HDAC Isoform IC50 (nM) 1
T6 construct: full length with C-terminal His-tag and C-terminal FLAG-tag; His (C); FLAG (C); host or cells: baculovirus expression system
T6 sequence (Q13547 whole entry, canonical isoform): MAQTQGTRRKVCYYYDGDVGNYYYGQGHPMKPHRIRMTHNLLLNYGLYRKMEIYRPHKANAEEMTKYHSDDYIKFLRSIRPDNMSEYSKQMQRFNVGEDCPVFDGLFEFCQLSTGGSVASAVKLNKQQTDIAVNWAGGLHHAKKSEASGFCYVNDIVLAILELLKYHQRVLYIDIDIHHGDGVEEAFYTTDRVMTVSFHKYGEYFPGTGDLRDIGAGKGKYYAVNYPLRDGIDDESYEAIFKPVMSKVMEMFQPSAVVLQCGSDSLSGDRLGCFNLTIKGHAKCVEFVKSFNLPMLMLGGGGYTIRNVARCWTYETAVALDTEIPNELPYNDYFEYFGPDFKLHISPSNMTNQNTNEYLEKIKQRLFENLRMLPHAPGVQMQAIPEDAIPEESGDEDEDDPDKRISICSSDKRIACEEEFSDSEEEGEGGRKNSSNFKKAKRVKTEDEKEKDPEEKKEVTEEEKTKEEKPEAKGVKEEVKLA
In short: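 Baculovirus-expressed full-length human HDAC1 with His and FLAG tags, 0.3 ng/ul, incubated 1 h at 30° C with compound and 50 μM RHKK(Ac)AMC in Tris pH 8.0 buffer with BSA and 1% DMSO. Developer then releases AMC from deacetylated substrate; fluorescence read at 360/460 nm.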

T1 sequence (P56524 627-1084 limits assumed): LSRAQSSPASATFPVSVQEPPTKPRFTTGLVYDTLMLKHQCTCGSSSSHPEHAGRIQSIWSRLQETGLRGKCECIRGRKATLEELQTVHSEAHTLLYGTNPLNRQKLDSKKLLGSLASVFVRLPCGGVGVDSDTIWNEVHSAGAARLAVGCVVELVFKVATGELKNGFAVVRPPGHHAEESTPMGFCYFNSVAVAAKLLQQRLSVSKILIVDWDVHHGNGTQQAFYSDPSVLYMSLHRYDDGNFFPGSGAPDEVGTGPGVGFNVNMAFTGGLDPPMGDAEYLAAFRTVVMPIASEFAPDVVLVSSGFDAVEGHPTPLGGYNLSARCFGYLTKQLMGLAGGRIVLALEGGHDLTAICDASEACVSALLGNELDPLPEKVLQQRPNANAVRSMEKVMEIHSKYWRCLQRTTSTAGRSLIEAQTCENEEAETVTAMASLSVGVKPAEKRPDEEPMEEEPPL

| Structure (SMILES) | IC50 [1] [nM] | IC50 [2] [nM] | IC50 [3] [nM] | IC50 [4] [nM] | IC50 [5] [nM] | IC50 [6] [nM] |
| --- | --- | --- | --- | --- | --- | --- |
| Cc1cncnc1N(Cc1ccc(-c2noc(C(F)(F)F)n2)s1)c1cnccn1 [Example CO, 5-Methyl-N-(pyrazin-2-yl)-N-({5-[5-(trifluoromethyl)-1,2,4-oxadiazol-3-yl]thiophen-2-yl}methyl)pyrimidin-4-amine] | ≤ 500 | ≤ 10000 | ≤ 1000 | ≤ 1000 | ≤ 1000 | > 10000 |
| FC(F)(F)c1nc(-c2ccc(CN(c3cnccn3)c3ccc(-c4ccccc4)nn3)s2)no1 [Example DN, 6-Phenyl-N-(pyrazin-2-yl)-N-({5-[5-(trifluoromethyl)-1,2,4-oxadiazol-3-yl]thiophen-2-yl}methyl)pyridazin-3-amine] | ≤ 1000 | ≤ 10000 | ≤ 500 | ≤ 500 | ≤ 500 | ≤ 10000 |
| FC(F)(F)c1nc(-c2ccc(CN(c3cnccn3)c3ccnc4ccnn34)s2)no1 [Example CF, N-{Pyrazolo[1,5-a]pyrimidin-7-yl}-N-({5-[5-(trifluoromethyl)-1,2,4-oxadiazol-3-yl]thiophen-2-yl}methyl)pyrazin-2-amine] | ≤ 1000 | ≤ 10000 | ≤ 10000 | ≤ 10000 | ≤ 10000 | > 10000 |
| COc1nccc(N(Cc2ccc(-c3noc(C(F)(F)F)n3)s2)c2cnccn2)n1 [Example CB, 2-Methoxy-N-(pyrazin-2-yl)-N-({5-[5-(trifluoromethyl)-1,2,4-oxadiazol-3-yl]thiophen-2-yl}methyl)pyrimidin-4-amine] | ≤ 500 | ≤ 10000 | ≤ 1000 | ≤ 1000 | ≤ 1000 | > 10000 |
| COCc1nccnc1N(Cc1ccc(-c2noc(C(F)(F)F)n2)s1)c1cnccn1 [Example BG, 3-(Methoxymethyl)-N-(pyrazin-2-yl)-N-({5-[5-(trifluoromethyl)-1,2,4-oxadiazol-3-yl]thiophen-2-yl}methyl)pyrazin-2-amine] | ≤ 10000 | ≤ 10000 | ≤ 10000 | ≤ 1000 | ≤ 1000 | > 10000 |
| FC(F)(F)c1nc(-c2ccc(CN(c3cccnc3)c3cnccn3)s2)no1 [Example AO, N-(Pyridin-3-yl)-N-({5-[5-(trifluoromethyl)-1,2,4-oxadiazol-3-yl]thiophen-2-yl}methyl)pyrazin-2-amine] | ≤ 500 | ≤ 1000 | ≤ 500 | ≤ 500 | ≤ 500 | > 10000 |
| Cn1cnc2cc(N(Cc3ccc(-c4noc(C(F)(F)F)n4)s3)c3cnccn3)ncc21 [Example AE, N-{3-Methyl-3H-imidazo[4,5-c]pyridin-6-yl}-N-({5-[5-(trifluoromethyl)-1,2,4-oxadiazol-3-yl]thiophen-2-yl}methyl)pyrazin-2-amine] | ≤ 500 | ≤ 10000 | ≤ 1000 | ≤ 500 | ≤ 10000 | > 10000 |
| Cc1ncc(N(Cc2ccc(-c3noc(C(F)(F)F)n3)s2)c2cnccn2)cn1 [Example CS, 2-Methyl-N-(pyrazin-2-yl)-N-({5-[5-(trifluoromethyl)-1,2,4-oxadiazol-3-yl]thiophen-2-yl}methyl)pyrimidin-5-amine] | ≤ 500 | ≤ 10000 | ≤ 500 | ≤ 1000 | ≤ 1000 | ≤ 10000 |
| Cc1cnc(N(Cc2ccc(-c3noc(C(F)(F)F)n3)s2)c2cc(C(F)(F)F)cnn2)cn1 [Example EO, N-(5-Methylpyrazin-2-yl)-5-(trifluoromethyl)-N-({5-[5-(trifluoromethyl)-1,2,4-oxadiazol-3-yl]thiophen-2-yl}methyl)pyridazin-3-amine] | ≤ 10000 | > 10000 | ≤ 10000 | ≤ 10000 | ≤ 10000 | > 10000 |
| FC(F)(F)c1nc(-c2ccc(CN(c3cnccn3)c3ccc4nccnc4n3)s2)no1 [Example Z, N-{Pyrido[2,3-b]pyrazin-6-yl}-N-({5-[5-(trifluoromethyl)-1,2,4-oxadiazol-3-yl]thiophen-2-yl}methyl)pyrazin-2-amine] | ≤ 1000 | ≤ 10000 | ≤ 1000 | ≤ 1000 | ≤ 1000 | > 10000 |
| Cc1cncc(N(Cc2ccc(-c3noc(C(F)(F)F)n3)s2)c2cc(C(F)(F)F)cnn2)n1 [Example EM, N-(6-Methylpyrazin-2-yl)-5-(trifluoromethyl)-N-({5-[5-(trifluoromethyl)-1,2,4-oxadiazol-3-yl]thiophen-2-yl}methyl)pyridazin-3-amine] | ≤ 10000 | > 10000 | ≤ 10000 | ≤ 10000 | ≤ 1000 | > 10000 |
| COc1ncc(N(Cc2ccc(-c3noc(C(F)(F)F)n3)s2)c2cnccn2)cn1 [Example CT, 2-Methoxy-N-(pyrazin-2-yl)-N-({5-[5-(trifluoromethyl)-1,2,4-oxadiazol-3-yl]thiophen-2-yl}methyl)pyrimidin-5-amine] | ≤ 500 | ≤ 1000 | ≤ 500 | ≤ 500 | ≤ 10000 | > 10000 |
